From patent US20230002361A1, “2H-INDAZOLE DERIVATIVES AND THEIR USE IN THE TREATMENT OF DISEASE” (BIOGEN MA INC., priority 2019, published 2023)
Read-outs that look alike come from different tables or passages of the source.

What was measured:
IRAK4 = target: T1, IRAK4 (Homo sapiens, UniProt Q9NWZ3); assay: IRAK4 MSD Biochemical Assay (1 mM ATP, 2 h); conditions: room temperature
T1 construct: with 0.1 nM IRAK4, 1.6 μM of biotinylated peptide substrate and 10 μM ATP
T1 sequence (Q9NWZ3 1-460): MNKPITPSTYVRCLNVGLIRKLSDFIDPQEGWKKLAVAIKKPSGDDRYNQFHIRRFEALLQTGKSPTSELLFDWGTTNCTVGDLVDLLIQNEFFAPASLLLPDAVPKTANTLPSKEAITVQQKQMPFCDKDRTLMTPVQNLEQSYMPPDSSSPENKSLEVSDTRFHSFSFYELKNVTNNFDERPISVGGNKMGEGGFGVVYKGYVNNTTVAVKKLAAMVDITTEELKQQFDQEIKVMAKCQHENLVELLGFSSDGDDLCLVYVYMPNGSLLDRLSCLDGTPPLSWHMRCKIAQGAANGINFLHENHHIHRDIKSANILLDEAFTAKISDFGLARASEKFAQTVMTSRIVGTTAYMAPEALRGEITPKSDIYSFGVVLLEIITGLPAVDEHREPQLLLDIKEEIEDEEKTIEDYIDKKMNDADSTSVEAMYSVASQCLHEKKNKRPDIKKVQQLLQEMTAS
Experimental: The 2-hour 10 μM ATP Biochemical Assay employs a MesoScale Detection (MSD) format.
The activity is quenched with 11 μl of 70 mM EDTA, pH 8.
To detect the phosphorylated biotinylated peptide substrate, 30 μl of the quenched reaction mixture is added to equivalent wells of a 384 well streptavidin coated MesoScale plate (Meso Scale Discovery #L21SA-1). After a 1 hour incubation of the plate for 1 hour at room temperature with gentle mixing, the plate wells are washed 3 times with 50 mM Tris, pH 7.5, 150 mM NaCl, 0.02% Tween-20.
A 25 μl volume of 1:500 anti-P-Threonine Rabbit polyclonal Antibody plus 1:500 Goat-anti-Rabbit Sulfo Tag Antibody (Meso Scale Discovery R32AB-1) in 50 mM Tris, pH 7.5, 150 mM NaCl, 0.02% Tween-20 plus 2% BSA is then added to each well. After a 1-hour incubation of the plate for 1 hour at room temperature with gentle mixing, the plate wells are washed, 3 times with 50 mM Tris, pH 7.5, 150 mM NaCl, 0.02% Tween-20. A 40 μl volume of 2×MSD Read Buffer (Meso Scale Discovery R92TC-1) is added to each well, and the plate is read immediately in an MSD Plate Reader (Meso Scale Discovery).
The 2-hour 1 mM ATP IRAK4 Biochemical assay was performed as described above, but with […] IRAK4 and 1 mM ATP.

MDR1 (P-gp) = target: T2, MDR1 (P-gp) (Homo sapiens, UniProt P08183); assay: MDR1-MDCK assay (efflux ratio); assay type: in vitro ADME; conditions: human, MDCK-MDR1, 1 μM compound, 120 minutes incubation; read-out: MDR1-MDCK Efflux Ratio; (B-A/A-B)
T2 construct: host or cells: MDCK cells
T2 sequence (P08183 whole entry): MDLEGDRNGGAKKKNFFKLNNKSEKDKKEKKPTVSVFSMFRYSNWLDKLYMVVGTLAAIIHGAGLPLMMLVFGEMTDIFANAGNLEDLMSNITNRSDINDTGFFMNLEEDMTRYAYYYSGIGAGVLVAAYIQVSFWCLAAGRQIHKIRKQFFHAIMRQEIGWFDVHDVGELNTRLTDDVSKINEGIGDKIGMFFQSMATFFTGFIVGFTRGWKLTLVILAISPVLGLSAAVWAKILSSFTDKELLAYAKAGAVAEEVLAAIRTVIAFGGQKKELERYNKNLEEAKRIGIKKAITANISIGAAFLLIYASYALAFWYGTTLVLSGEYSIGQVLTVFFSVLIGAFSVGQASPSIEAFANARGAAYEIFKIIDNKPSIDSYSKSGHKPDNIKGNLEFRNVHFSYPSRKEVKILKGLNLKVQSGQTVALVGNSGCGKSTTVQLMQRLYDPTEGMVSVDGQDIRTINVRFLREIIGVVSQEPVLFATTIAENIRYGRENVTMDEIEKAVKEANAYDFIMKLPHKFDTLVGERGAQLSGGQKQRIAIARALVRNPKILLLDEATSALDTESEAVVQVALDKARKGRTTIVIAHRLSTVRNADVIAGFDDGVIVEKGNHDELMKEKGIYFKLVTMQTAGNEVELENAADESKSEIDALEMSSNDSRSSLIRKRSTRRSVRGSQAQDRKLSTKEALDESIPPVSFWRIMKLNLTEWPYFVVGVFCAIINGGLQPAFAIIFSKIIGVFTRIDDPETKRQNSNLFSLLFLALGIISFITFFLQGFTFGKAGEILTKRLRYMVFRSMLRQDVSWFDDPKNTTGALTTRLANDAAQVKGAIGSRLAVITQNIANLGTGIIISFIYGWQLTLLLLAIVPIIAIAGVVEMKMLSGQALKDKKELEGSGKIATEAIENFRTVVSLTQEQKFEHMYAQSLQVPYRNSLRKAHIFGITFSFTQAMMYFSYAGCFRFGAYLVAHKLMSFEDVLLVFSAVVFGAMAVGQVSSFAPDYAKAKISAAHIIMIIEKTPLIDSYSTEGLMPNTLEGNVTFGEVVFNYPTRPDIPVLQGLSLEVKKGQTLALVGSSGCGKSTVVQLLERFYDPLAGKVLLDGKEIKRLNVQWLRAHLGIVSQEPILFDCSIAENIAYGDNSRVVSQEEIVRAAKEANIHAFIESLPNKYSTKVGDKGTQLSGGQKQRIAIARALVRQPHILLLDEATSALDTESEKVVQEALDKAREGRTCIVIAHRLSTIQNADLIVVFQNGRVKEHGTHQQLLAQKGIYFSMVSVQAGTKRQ
Experimental: • The assay makes use of human MDR1 transfected MDCK cells (NIH cell line in-licensed from Absorption Systems) • The compounds are tested at 1 μM concentration prepared in transport buffer (Hank's balanced salt solution with HEPES) • MDR1-MDCK cell are cultured for 7 days in 96 well transwell insert plates (Corning). Insert plates are washed before the assay and TEER (Trans epithelial electric resistance) is measured. • These plates are loaded with test compound solution 85 μL for A-B transport and 260 μL for B-A transport in the respective donor compartment.
Mass balance=100×((Vr×Cr^final)+(Vd×Cd^final))/(Vd×CE) • Where: • dCr/dt is the cumulative concentration in the receiver compartment versus time in μM s^−1 • Vr is the volume of the receiver compartment in cm^3 • Vd is the volume of the donor compartment in cm^3 • A is the area of the insert (0.143 cm^2 for 96-well insert) • CE is the estimated experimental concentration (Time=0) of the dosing solution • Cr^final is the concentration of the receiver at the end of the incubation period • Cd^final is the concentration of the donor at the end of the incubation period.

[1] = read-out: IRAK4 MSD Biochemical Assay (1 mM ATP, 2 h) IC50
[2] = IRAK4 MSD Biochemical Assay (1 mM ATP, 2 h) IC50 (nM)

Structure (SMILES)	IC50 (IRAK4; [1])	efflux ratio at 120 min, 1 μM (MDR1 (P-gp))	IC50 (IRAK4; [2])
COc1cc2nn(C[C@H]3CCOC3)cc2cc1C(=O)Nc1cccc(C(F)F)n1 (single isomer, unassigned) [Example 18]	7.1 nM	0.9	
COc1cc2nn(C[C@@H]3CCOC3)cc2cc1C(=O)Nc1cccc(C(F)F)n1 (single isomer, unassigned) [Example 19]	5.4 nM	1	
CC(C)Oc1cc2nn(C[C@H]3CCOC3)cc2cc1C(=O)Nc1cccc(C(F)F)n1 (single isomer, unassigned) [Example 20]	0.5 nM	0.7	
CC(C)Oc1cc2nn(C[C@@H]3CCOC3)cc2cc1C(=O)Nc1cccc(C(F)F)n1 (single isomer, unassigned) [Example 21]	0.5 nM	0.7	
COc1cccc(NC(=O)c2cc3cn(C[C@@H]4CCOC4)nc3cc2OC)n1 (single isomer, unassigned) [Example 22]	9.2 nM	0.6	
COc1cccc(NC(=O)c2cc3cn(C[C@H]4CCOC4)nc3cc2OC)n1 (single isomer, unassigned) [Example 23]	51.3 nM	0.8	
CC(C)Oc1cc2nn([C@H]3CCCOC3)cc2cc1C(=O)Nc1cccc(C(F)F)n1 (single isomer, unassigned) [Example 42]	0.4 nM	0.9	
CC(C)Oc1cc2nn([C@@H]3CCCOC3)cc2cc1C(=O)Nc1cccc(C(F)F)n1 (single isomer, unassigned) [Example 43]	0.2 nM	0.6	
CC(C)Oc1cc2nn([C@H]3CCOC3)cc2cc1C(=O)Nc1cccc(C(F)F)n1 (single isomer, unassigned) [Example 44]	2.2 nM	0.8	
CC(C)Oc1cc2nn([C@@H]3CCOC3)cc2cc1C(=O)Nc1cccc(C(F)F)n1 (single isomer, unassigned) [Example 45]	2.1 nM	1	
CC(C)Oc1cc2nn([C@@H]3CCOC(C)(C)C3)cc2cc1C(=O)Nc1cccc(C(F)F)n1 (single isomer, unassigned) [Example 46]	0.3 nM	1.2	
CC(C)Oc1cc2nn([C@H]3CCOC(C)(C)C3)cc2cc1C(=O)Nc1cccc(C(F)F)n1 (single isomer, unassigned) [Example 47]	0.2 nM	1.5	
CC(C)Oc1nc2nn(C[C@@H]3CCOC3)cc2cc1C(=O)Nc1cccc2ccnn12 (single isomer, unassigned) [Example 52]	1 nM	1	
CC(C)Oc1nc2nn(C[C@H]3CCOC3)cc2cc1C(=O)Nc1cccc2ccnn12 (single isomer, unassigned) [Example 53]	1.5 nM	1	
Cc1cnc2c(NC(=O)c3cc4cn(C[C@H]5CCOC5)nc4nc3OC(C)C)cnn2c1 (single isomer, unassigned) [Example 104]	0.9 nM	4.8	
Cc1cnc2c(NC(=O)c3cc4cn(C[C@@H]5CCOC5)nc4nc3OC(C)C)cnn2c1 (single isomer, unassigned) [Example 105]	1.5 nM	4.8	
CC(C)Oc1nc2nn(C[C@H]3CCOC3)cc2cc1C(=O)Nc1cccc(C(F)F)n1 (single isomer, unassigned) [Example 106]	0.4 nM	0.8	
CC(C)Oc1nc2nn(C[C@@H]3CCOC3)cc2cc1C(=O)Nc1cccc(C(F)F)n1 (single isomer, unassigned) [Example 107]	0.3 nM	1	

Structure (SMILES)	IC50 (IRAK4; [1])	efflux ratio at 120 min, 1 μM (MDR1 (P-gp))	IC50 (IRAK4; [2])
CC(C)Oc1nc2nn(C[C@H]3CCOC3)cc2cc1C(=O)Nc1ccn(C(F)F)n1 (single isomer, unassigned) [Example 110]	2.8 nM	2.2	
CC(C)Oc1nc2nn(C[C@@H]3CCOC3)cc2cc1C(=O)Nc1ccn(C(F)F)n1 (single isomer, unassigned) [Example 111]	2.7 nM	2.1	
Cn1cccc(NC(=O)c2cc3cn(C[C@H]4CCOC4)nc3nc2OC2CCC2)c1=O (single isomer, unassigned) [Example 112]	3.4 nM	8.3	
Cn1cccc(NC(=O)c2cc3cn(C[C@@H]4CCOC4)nc3nc2OC2CCC2)c1=O (single isomer, unassigned) [Example 113]	2.1 nM	5.3	
Cn1cccc(NC(=O)c2cc3cn(C[C@H]4CCOC4)nc3nc2OC2CCCC2)c1=O (single isomer, unassigned) [Example 114]	1.8 nM	1.5	
Cn1cccc(NC(=O)c2cc3cn(C[C@@H]4CCOC4)nc3nc2OC2CCCC2)c1=O (single isomer, unassigned) [Example 115]	1 nM	2.3	
O=C(Nc1ccn(C(F)F)n1)c1cc2cn(C[C@H]3CCOC3)nc2nc1OC1CCCC1 (single isomer, unassigned) [Example 116]	3.8 nM	2.5	
O=C(Nc1ccn(C(F)F)n1)c1cc2cn(C[C@@H]3CCOC3)nc2nc1OC1CCCC1 (single isomer, unassigned) [Example 117]	2 nM	2.6	
CC(C)Oc1nc2nn(C[C@H]3CCOC3)cc2cc1C(=O)Nc1cnn2cccnc12 (single isomer, unassigned) [Example 118]		3.1	0.8 nM
CC(C)Oc1nc2nn(C[C@@H]3CCOC3)cc2cc1C(=O)Nc1cnn2cccnc12 (single isomer, unassigned) [Example 119]		3	1 nM
CC(C)Oc1nc2nn([C@@H]3CCCOC3)cc2cc1C(=O)Nc1cnn2cccnc12 (single isomer, unassigned) [Example 120]	0.5 nM	0.9	
CC(C)Oc1nc2nn([C@H]3CCCOC3)cc2cc1C(=O)Nc1cnn2cccnc12 (single isomer, unassigned) [Example 121]	0.7 nM	1.1	
Cc1cnc2c(NC(=O)c3cc4cn(C[C@H]5CCOC5)nc4nc3OC3CCC3)cnn2c1 (single isomer, unassigned) [Example 122]	0.4 nM	4.2	
Cc1cnc2c(NC(=O)c3cc4cn(C[C@@H]5CCOC5)nc4nc3OC3CCC3)cnn2c1 (single isomer, unassigned) [Example 123]	0.5 nM	5.9	
Cn1ccc(NC(=O)c2cc3cn(C4CCCOC4)nc3nc2OC2CCC2)n1 (single isomer, unassigned) [Example 130]	1.7 nM		
CC(C)Oc1cc2nn(C34COC(C)(C3)C4)cc2cc1C(=O)Nc1cccn(C)c1=O.O=C(O)C(F)(F)F [Example 55, 6-Isopropoxy-N-(1-methyl-2-oxo-1,2-dihydropyridin-3-yl)-2-(1-methyl-2-oxabicyclo[2.1.1]hexan-4-yl)-2H-indazole-5-carboxamide Trifluoroacetate]		1.2	
CC(C)Oc1cc2nn(C34CCC(C)(C3)OC4)cc2cc1C(=O)Nc1cnn2cc(F)cnc12 (stereo not shown) [Example 100, N-(6-fluoropyrazolo[1,5-a]pyrimidin-3-yl)-6-isopropoxy-2-(1-methyl-2-oxabicyclo[2.2.1]heptan-4-yl)-2H-indazole-5-carboxamide]	1.2 nM		
